We go through two molecules from ChEMBL document CHEMBL3132839, “Discovery of BET bromodomain inhibitors and their role in target validation” (Medchemcomm, 2014).

pIC50: −log10 of the molar value.

The target in the experiment is Bromodomain-containing protein 4 (Homo sapiens, UniProt O60885). As to the kind of experiment: Inhibition of BRD4(1) (unknown origin) by Alpha screen binding assay. (In general: Alpha assays give light when donor and acceptor beads are brought close together.)

The term pIC50 denotes −log10 of the IC50, conventionally taken in molar units. Read a high pIC50 as a low IC50. Take `CNC(=O)[C@H](CCCCNC(C)=O)NC`: the negative-log IC50 (pIC50) is 2.15.

As to `C[S+](C)[O-]` [DIMETHYL SULFOXIDE], the pIC50 is 0.55.
